Tests used:
SGK3 = SGK3 kinase activity after immunoprecipitation from inhibitor-treated U2OS cells (Crosstide assay); type: cell-based
[1] = system: Akt (Thr308, Ser473) and Akt substrate PRAS40 (Thr246) phosphorylation; assay: Akt and PRAS40 phosphorylation, immunoblot of treated U2OS cells; type: cell-based; details: 1 h
Experimental: (§1) U20S cell line was kindly provided by John Rouse (MRC Protein Phosphorylation and Ubiquitylation Unit, University of Dundee, Dundee, U.K.). Cells were cultured in DMEM (Dulbecco's modified Eagle's medium) supplemented with 10% (v/v) FBS, 2 mM L-glutamine, 100 U/ml penicillin and 0.1 mg/ml streptomycin. cDNA for mouse Hrs (residues 147–223 ×2 joined by a linker) were cloned into a pBABE.puro vector. […] . The virus was harvested 48 h after transfection and applied to U20S cells in the presence of 10 μg/ml polybrene. Cells were selected with 10 μg/ml puromycin before single cell colony selection to identify low expression GFP–FYVEHrs clones. U2OS Flp/In cell line was kindly provided by John Rouse. Cells were cultured in McCoy medium supplemented with 10% (v/v) FBS, 2 mM L-glutamine, 100 U/ml penicillin and 0.1 mg/ml streptomycin. Stable cell lines expressing doxycycline-inducible proteins were generated using the Flp-In™ T-REx™ system (Invitrogen). Stable transfected clones were selected using 0.01 mM hygromycin in cell medium. Protein expression was induced by adding 0.01 mg/ml doxycycline in the medium for 24 h prior to cell lysis. Inhibitor treatment was carried out as described in the Figure legends. The cells were lysed in buffer containing 50 mM Tris/HCl (pH 7.5), 150 mM NaCl, 1 mM EDTA, 1 mM EGTA, 1 mM sodium orthovanadate, 10 mM sodium glycerophosphate, 50 mM sodium fluoride, 10 mM sodium pyrophosphate, 0.27 M sucrose, 0.1% 2-mercaptoethanol, 1 mM benzamidine and 0.1 mM PMSF. Lysates were clarified by centrifugation at 16000 g for 10 min at 4°C. Protein concentration was calculated using Bradford assay (Thermo Scientific). Immunoblotting and immunoprecipitation were performed using standard procedures. The signal was developed using the ECL Western Blotting Detection kit (GE Healthcare) on Hyperfilm ECL film (GE Healthcare).
The following antibodies were raised in sheep, by the DSTT (Division of Signal Transduction Therapy) at the University of Dundee, and affinity-purified against the indicated antigens: anti-Akt1 (S695B, third bleed; raised against residues 466–480 of human Akt1: […]), anti-PRAS40 (proline-rich Akt substrate 40 kDa) (S115B, first bleed; raised against residues 238–256 of human PRAS40: […]), anti-(phospho-PRAS40 Thr^246) (S114B, second bleed; raised against residues 240–251 of human PRAS40: CRPRLNTpSDFQK), anti-NDRG1 (N-Myc downstream-regulated gene-1) (S276B third bleed; raised against full-length human NDRG1) and anti-SGK3 [S037D second bleed; raised against human SGK3 PX domain comprising residues 1–130 of SGK3]. […] Anti-(phospho-SGK hydrophobic motif [Ser^486 in SGK3]) antibody (sc16745) was from Santa Cruz Biotechnology and total SGK1/2 antibody was from Sigma (5188) as was the mouse anti-FLAG antibody. Secondary antibodies coupled to HRP (horseradish peroxidase) were obtained from Thermo Scientific.
. […] (B and C) As in (A) except cells were treated with the indicated doses of the BKM120 class I PI3K inhibitor.

[2] = system: NDRG1 phosphorylation at Thr346; assay: NDRG1 Thr346 phosphorylation, immunoblot of treated U2OS cells; type: cell-based; details: 1 h
Experimental: as §1, with “The cells were lysed in buffer containing 50 mM Tris/HCl (pH 7.5), 150 mM NaCl, 1 mM EDTA, 1 mM EGTA, 1 mM sodium orthovanadate, 10 mM sodium glycerophosphate, 50 mM sodium fluoride, 10 mM sodium pyrophosphate, 0.27 M sucrose, 0.1% 2-mercaptoethanol, 1 mM benzamidine and 0.1 mM PMSF. Lysates were clarified by centrifugation at 16000 g for 10 min at 4°C.” left out, “Immunoblotting and immunoprecipitation were performed using standard procedures. The signal was developed using the ECL Western Blotting Detection kit (GE Healthcare) on Hyperfilm ECL film (GE Healthcare).” left out

[3] = system: 4EBP1 phosphorylation (Thr37, Thr46 and Ser65); assay: 4E-BP1 phosphorylation (mTORC1 sites), immunoblot of treated U2OS cells; type: cell-based; details: AZD8055 0.1 μM
Experimental: as §1, with “Healthcare). […]” for “Healthcare).”

Vps34 = details: cited from earlier work
[4] = system: PtdIns(3,4,5)P3/PtdIns(3,4)P2 (GFP–PHAkt1 probe) in U2OS cells; assay: IGF1-induced plasma membrane recruitment of GFP–PHAkt1 in U2OS cells; details: 1 μM VPS34-IN1 or 0.5 μM GDC-0941 for 1 h, IGF 100 ng/ml 15 min
Experimental: (§2) Cells were cultured on glass coverslips and processed for immunocytochemistry using standard protocols. […] For experiments quantifying co-localization of SGK3–GFP with EEA1 (early endosome antigen 1) and localization GFP–FYVEHrs in response to inhibitor treatment, cells were permeabilized via one freeze–thaw cycle in liquid nitrogen and subsequently fixed. The following primary antibodies were used: rabbit anti-EEA1 (1:500 dilution; Life Technologies) and mouse anti-GFP (1:1000 dilution; Life Technologies) antibodies. […] Imaging was conducted using a Nikon Eclipse Ti-S microscope (×40 objective) or a Zeiss LSM710 laser scanning confocal microscope [×63 Plan-Apochromat oil immersion objective; 1.40 NA (numerical aperture)] as described in the Figure legends. Time-lapse microscopy was carried out on the same microscope using a heated incubator, heated stage plate and CO2 controller (Pecon) to maintain the cells.
(§3) Time-lapse microscopy was performed on Zeiss 710 microscope using ×63 objective. […] The cells were fixed with 4% paraformaldehyde and images were taken using Zeiss 710 microscope at ×63 objective.

[5] = system: SGK3 localization on endosomes in U2OS cells; assay: SGK3–GFP endosomal localization, time-lapse microscopy in U2OS cells
Experimental: as §2
Images were acquired every 0.5 min up to 60 min. […] Post-acquisition, image analysis was conducted with Volocity 6.3 (PerkinElmer).
Images were taken using a Nicon Eclipse Ti-S microscope with ×40 objective (upper panel). […] Pictures were taken with Zeiss 710 microscope using ×100 objective. Mander's correlation coefficient in 112 cells was calculated using the Volocity 6.3 program. […] Time-lapse microscopy was performed on Zeiss 710 microscope using ×63 objective. Representative images are shown and similar results were obtained in two experiments.

[6] = system: endosomal PtdIns(3)P (GFP–2×FYVEHrs probe) in U2OS cells; assay: GFP–2×FYVEHrs probe localization, live imaging (time-lapse) in U2OS cells
Experimental: as §2
Images were acquired every 0.5 min up to 60 min. Inhibitors were added after acquiring two images, except for VPS34-IN1 that was added after the first image taken. Post-acquisition, image analysis was conducted with Volocity 6.3 (PerkinElmer).
as §3

[7] = system: SGK3 phosphorylation (Thr320, Ser486); assay: SGK3 T-loop and hydrophobic motif phosphorylation, immunoblot of treated U2OS cells; type: cell-based; details: for SGK3 T-loop and hydrophobic motif phosphorylation: 1 h, U2OS, immunoblot
Experimental: as §1, with “Healthcare). […]” for “Healthcare).”

[8] = system: ProQinase panel of 300 protein kinases; assay: ProQinase protein kinase profiling panel; type: biochemical; details: 1 μM, 300 kinases
Text: Supplementary Figure Legends
technology. The assay conditions are described at
activity in DMSO control.

[9] = system: panel of 19 lipid kinases (includes class I PI3Ks); assay: Dundee lipid kinase profiling panel; type: biochemical; details: 1 μM
[10] = system: endosomal PtdIns(3)P (GFP–2×FYVEHrs probe) in U2OS cells; assay: GFP–2×FYVEHrs probe localization on endosomes, fixed U2OS cells; type: cell-based; details: for loss of endosomal localization of GFP–2×FYVEHrs: 1 h
Experimental: U20S cell line was kindly provided by John Rouse (MRC Protein Phosphorylation and Ubiquitylation Unit, University of Dundee, Dundee, U.K.). […] The virus was harvested 48 h after transfection and applied to U20S cells in the presence of 10 μg/ml polybrene. Cells were selected with 10 μg/ml puromycin before single cell colony selection to identify low expression GFP–FYVEHrs clones. U2OS Flp/In cell line was kindly provided by John Rouse. Cells were cultured in McCoy medium supplemented with 10% (v/v) FBS, 2 mM L-glutamine, 100 U/ml penicillin and 0.1 mg/ml streptomycin. Stable cell lines expressing doxycycline-inducible proteins were generated using the Flp-In™ T-REx™ system (Invitrogen). Stable transfected clones were selected using 0.01 mM hygromycin in cell medium. Protein expression was induced by adding 0.01 mg/ml doxycycline in the medium for 24 h prior to cell lysis. Inhibitor treatment was carried out as described in the Figure legends. The cells were lysed in buffer containing 50 mM Tris/HCl (pH 7.5), 150 mM NaCl, 1 mM EDTA, 1 mM EGTA, 1 mM sodium orthovanadate, 10 mM sodium glycerophosphate, 50 mM sodium fluoride, 10 mM sodium pyrophosphate, 0.27 M sucrose, 0.1% 2-mercaptoethanol, 1 mM benzamidine and 0.1 mM PMSF. Lysates were clarified by centrifugation at 16000 g for 10 min at 4°C. Protein concentration was calculated using Bradford assay (Thermo Scientific). Immunoblotting and immunoprecipitation were performed using standard procedures. The signal was developed using the ECL Western Blotting Detection kit (GE Healthcare) on Hyperfilm ECL film (GE Healthcare).
Cells were cultured on glass coverslips and processed for immunocytochemistry using standard protocols. […] For experiments quantifying co-localization of SGK3–GFP with EEA1 (early endosome antigen 1) and localization GFP–FYVEHrs in response to inhibitor treatment, cells were permeabilized via one freeze–thaw cycle in liquid nitrogen and subsequently fixed. […]
The average cell fluorescence was calculated by dividing total fluorescence of each field by the number of the cells in the field. […]

[11] = system: Dundee panel of 140 protein kinases; assay: Dundee protein kinase profiling panel; details: 1 μM, 140 kinases
Experimental: (C) Protein kinase profiling of the VPS34-IN1 at a single concentration of 1 μM carried out against the Dundee panel of 140 protein kinases at the International Centre for Protein Kinase Profiling. […] Abbreviations and assay conditions used for each kinase are defined at http://www.kinase-screen.mrc.ac.uk.

SGK2 = SGK2 kinase activity after immunoprecipitation from inhibitor-treated U2OS cells; details: 1 h, U2OS expressing SGK2
Experimental: In vitro kinase activity of SGK3 and SGK2 was assayed by measuring [γ-^32P]ATP incorporation into Crosstide substrate peptide [[sequence]]. SGK3 with a C-terminal FLAG-tag was immunoprecipitated from doxycycline-induced U2OS Flp/In cell lines. Immunoprecipitates were washed in sequence with lysis buffer containing high salt concentration (500 mM NaCl), lysis buffer and buffer A (50 mM Tris/HCl, pH 7.5, and 0.1 mM EGTA). Reactions were carried in 40 μl of total volume containing 0.1 mM [γ-^32P]ATP (400–1000 c.p.m./pmol), 10 mM magnesium acetate and 30 μM Crosstide peptide. Reactions were terminated by adding 10 μl of 0.1 mM EDTA and spotting 40 μl of the reaction mixture on P81 paper which were immediately immersed into 50 mM orthophosphoric acid. Papers were washed several times in 50 mM orthophosphoric acid, rinsed in acetone and air dried. Radioactivity was quantified by Cerenkov counting. One unit of enzyme activity was defined as the amount of enzyme that catalyses incorporation of 1 nmol of [γ-^32P]ATP into the substrate over 1 min.
The cells were lysed and SGK3 immunoprecipitated with anti-FLAG antibody. […]

## CS(=O)(=O)N1CCN(Cc2cc3nc(-c4cccc5[nH]ncc45)nc(N4CCOCC4)c3s2)CC1 [GDC-0941, 2-(1H-indazol-4-yl)-6-(4-methanesulfonyl-piperazin-1-ylmethyl)-4-morpholin-4-yl-t hieno[3,2-d]pyrimidine, reference compound]
SGK3; 0.5 μM GDC-0941, 1 min time point
  effect on SGK3 activity and phosphorylation at 1 min: little effect
SGK3; 0.5 μM GDC-0941, time course
  time to near maximal inhibition of SGK3 activity: 2 min
[1]
  Akt phosphorylation at Ser473 and Thr308: near basal levels
  phosphorylation of Akt substrate PRAS40 (Thr246): near basal levels
[2]
  NDRG1 phosphorylation at Thr346: significantly suppressed
[3]
  phosphorylation of 4EBP1 at sites phosphorylated by mTORC1: lack of effect
Vps34
  inhibition of Vps34: do not inhibit
[4]
  effect on IGF1-induced plasma membrane recruitment of GFP–PHAkt1: blocked
[5]; 0.5 μM GDC-0941 alone or with 1 μM VPS34-IN1, time-lapse
  effect on SGK3 localization on endosomes: did not change significantly
[6]; 0.5 μM GDC-0941 alone or with 1 μM VPS34-IN1, up to 60 min, live imaging
  effect on endosomal localization of GFP–2×FYVEHrs: had no effect

## CNc1nc(-c2ccc3c(N)n[nH]c3c2)cc(N2C[C@@H](C(=O)NC3CCCCC3)CC[C@H]2C)n1 [GSK2334470, reference compound]
SGK3; 1 μM, 1 h, U2OS
  SGK3 activity after PDK1 inhibitor: near basal levels
[7]
  SGK3 T-loop and hydrophobic motif phosphorylation: near basal levels

## Nc1cc(C(F)(F)F)c(-c2cc(N3CCOCC3)nc(N3CCOCC3)n2)cn1 [BKM120]
SGK3; Homo sapiens, U2OS, 1 h, read-out: inhibition of SGK3 activity by class I PI3K inhibitor
  inhibition at 0.5 µM: ~40%
[1]
  Akt phosphorylation at Ser473 and Thr308: near basal levels
  phosphorylation of Akt substrate PRAS40 (Thr246): near basal levels
[3]
  phosphorylation of 4EBP1 at sites phosphorylated by mTORC1: lack of effect
Vps34
  inhibition of Vps34: do not inhibit

## COc1ccc(-c2ccc3c(N4CCOC[C@@H]4C)nc(N4CCOC[C@@H]4C)nc3n2)cc1CO [AZD8055]
[3]
  phosphorylation of 4EBP1 at sites phosphorylated by mTORC1: marked dephosphorylation

## CC(C)(O)CNc1ncc(-c2ccnc(Nc3ccnc(Cl)c3)n2)c(CC2CC2)n1 [VPS34-IN1, 1-[{2-[(2-chloropyridin-4yl)amino]-4′-(cyclopropylmethyl)-[4,5′-bipyrimidin]-2′-yl}amino]-2-methyl-propan-2-ol]
[8]
  inhibition of protein kinases, ProQinase panel: did not significantly inhibit
[9]
  inhibition of lipid kinases, Dundee panel: did not significantly inhibit
[10]; 0.01 μM
  effect on GFP–2×FYVEHrs localization: weak effect
[10]; 0.1 μM
  loss of endosomal localization of GFP–2×FYVEHrs: ~ 50%
[10]; 1.0 μM
  loss of endosomal localization of GFP–2×FYVEHrs: ~ 80%
SGK3; 0.1 μM VPS34-IN1, 1 h, U2OS
  reduction in SGK3 activity: ~ 40%
SGK3; 1 μM VPS34-IN1, 1 h, U2OS
  reduction in SGK3 activity: ~ 60%
SGK3; 1 μM VPS34-IN1, time course
  time to 50% reduction of SGK3 activity: ≤ 15 s
  time to maximal suppression of SGK3 activity: ≤ 1 min
SGK3; U2OS, concentration not given
  decrease in SGK3 activity on VPS34-IN1 treatment: 50–60%
SGK3; VPS34-IN1, as stated in Discussion
  time to nearly maximal reduction in SGK3 activity and phosphorylation: ≤ 30 s
[7]
  SGK3 T-loop and hydrophobic motif phosphorylation: commensurate decrease
[7]; within 1 min
  loss of SGK3 phosphorylation: 50–60%
[1]
  Akt phosphorylation at Ser473 and Thr308: had no effect
  phosphorylation of Akt substrate PRAS40 (Thr246): had no effect
[2]
  NDRG1 phosphorylation at Thr346: only affected moderately
[11]
  inhibition of protein kinases, Dundee panel: did not significantly inhibit
[4]
  effect on IGF1-induced plasma membrane recruitment of GFP–PHAkt1: had no impact
[5]; 1 μM, time-lapse, U2OS
  time to dispersal of SGK3 from the endosomes: ≤ 1 min
[5]; live cell imaging, U2OS
  time until dispersal of endosome-localized GFP–SGK3 is essentially complete: 60 to 120 s
[6]; 1 μM, live imaging, U2OS
  time to near maximal dispersal of endosomal GFP–2×FYVEHrs: ≤ 2 min
  time to significant dispersal of endosomal GFP–2×FYVEHrs: ≤ 1 min
[6]; live cell imaging, U2OS
  time until dispersal of endosome-localized GFP–2×FYVEHrs is essentially complete: 60 to 120 s
SGK2
  inhibition of SGK2 activity: did not inhibit
